Reference: US20090062338A1, “[…] USE IN TREATING OR PREVENTING CARDIOVASCULAR DISEASE” (priority 2005, published 2009)

Experiments:
hepatocyte growth factor [1] = test: Gene expression in cardiac tissue of mice fed Tempol, chip-based microarray; type: in vivo; conditions: 5 mg/g of food from 14 to 31 months of age
Procedure: To assess the effects of Tempol on gene expression, Tempol was administered to experimental mice at a dose of 5 mg/g of food from 14 months to 31 months after birth. Mice receiving the same food without the addition of Tempol were used as a negative control. At the age of 31 months, the experimental animals were sacrificed and the hearts were surgically removed. The expression of a broad spectrum of genes in the cardiac tissue was assessed using chip-based microarray technology. Such chips are well known in the art and are widely used to assess gene expression.

caspase 3 [2] = test: Protein level in patient after Tempol treatment; type: in vivo, human; conditions: 1500 mg per day for 180 days
Procedure: (§1) A 70-kilogram patient three days post myocardial infarction is administered a dose of 1500 mg of Tempol per day for 180 days. This may be administered in a single dose, or may be administered as a number of smaller doses over a 24-hour period: for example, three 500-mg doses at eight-hour intervals. Following treatment, the protein level of hepatocyte growth factor and adiponectin in the plasma is increased, and the protein level of caspase 3 is decreased.
as §1, with “at risk for” for “three days post”

hepatocyte growth factor [3] = test: Protein level in patient after Tempol treatment; type: in vivo, human; conditions: 1500 mg per day for 180 days
Procedure: as §1
as §1, with “at risk for” for “three days post”

adiponectin = test: Protein level in patient after Tempol treatment; type: in vivo, human; conditions: 1500 mg per day for 180 days
Procedure: as §1
as §1, with “at risk for” for “three days post”

[4] = tested on: Adiponectin, C1Q and collagen domain containing; test: Gene expression in adipose tissue of mice fed Tempol, Affymetrix MOE430A 2.0 array; type: in vivo; conditions: 5 g/kg of diet from 12 through 15 months
Procedure: (§2) In a further gene expression study, Tempol was administered to experimental mice at a dose of 5 g/kg of diet from 12 months through 15 months. Mice receiving the same diet without the addition of Tempol were used as a negative control. At the age of 15 months, the adipose tissue of the experimental animals was obtained. The expression of a broad spectrum of genes in the adipose tissue was assessed using chip-based microarray technology. Specifically, in this case an Affymetrix MOE430A 2.0 array, containing 12,960 genes, was employed. Such chips are well known in the art and are widely used to assess gene expression.

Caspase 3 [5] = test: as above; type: in vivo; conditions: 5 g/kg of diet from 12 through 15 months
Procedure: as §2

endothelium = conditions: angiotensin II infused rats, introduction of Tempol; cited from earlier work
[6] = Example 1: 70-kg patient three days post myocardial infarction
[7] = Example 2: 70-kg patient at risk for myocardial infarction

## CC1(C)CC(O)CC(C)(C)N1[O] [Tempol, 4-hydroxy-2,2,6,6-tetramethylpiperidine-1-oxyl]
Hepatocyte growth factor [1]
  HGF expression, fold change (increase) vs control mice: 3.2 fold
Hepatocyte growth factor [1]; microarray signal
  HGF (ORF W12681) expression, TEMPOL-treated mouse tp51: 152
  HGF (ORF W12681) expression, TEMPOL-treated mouse tp52: 151
  HGF (ORF W12681) expression, TEMPOL-treated mouse tp53: 207
Caspase 3 [2]; [6]
  Protein level of caspase 3: decreased
Caspase 3 [2]; [7]
  Protein level of caspase 3: decreased
Hepatocyte growth factor [3]; [6]
  Protein level of hepatocyte growth factor in the plasma: increased
Hepatocyte growth factor [3]; [7]
  Protein level of hepatocyte growth factor in the plasma: increased
adiponectin; [6]
  Protein level of adiponectin in the plasma: increased
adiponectin; [7]
  Protein level of adiponectin in the plasma: increased
[4]
  Adiponectin expression, fold change (increase) vs control mice: 1.22 fold
[4]; microarray signal
  Adiponectin expression, mean (Tempol-treated mice): 33876
Caspase 3 [5]; microarray signal
  Caspase 3 expression, mean (Tempol-treated mice): 414
Caspase 3 [5]; negative = decrease
  Caspase 3 expression, fold change vs control mice (signed): −1.47 fold
Caspase 3 [5]; stated as decreased
  Caspase 3 expression, fold decrease vs control mice: 1.47 fold
endothelium
  Deleterious effects of angiotensin II on the endothelium: ameliorated
